Series [1] concerns rodent model of non-alcoholic steatohepatitis (NASH). In words: Picrosirius Red staining of liver in CDHFD rat NASH model. It is filed as in vivo. To be noted: CDHFD rats, 12 weeks; ASK1i 0.03% in chow, Formula (III) 10 mg/kg QD PO; FIG. 7. On the procedure:
The following study was conducted to evaluate the efficacy of the combination of an ASK1 inhibitor (ASK1i) and an ACC inhibitor (ACCi) in a rodent model of non-alcoholic steatohepatitis (NASH) relative to the efficacy of the individual agents alone in the model. In this model, NASH was induced in male Wistar rats by administration of a choline-deficient high fat diet (CDHFD).
Male Wistar (Crl:Wi(Han)) rats (aged 8-9 weeks at arrival) were acquired from Charles River, Raleigh, N.C. and used in the current studies. This study complie with all applicable sections of the Final Rules of the Animal Welfare Act regulations (Code of Federal Regulations, Title 9), the Public Health Service Policy on Humane Care and Use of Laboratory Animals from the Office of Laboratory Animal Welfare, and the Guide for the Care and Use of Laboratory Animals from the National Research Council. […]
Whole slide images of Picrosirius Red (PSR) stained slides were captured using a Leica AT2 scanner at 40× magnification. […] Quantitative image analysis was performed on the whole slide images using Visiopharm image analysis software (Visiopharm, Hoersholm, Denmark) to determine the extent and intensity of PSR. The total PSR-stained area was measured and expressed as a percentage of total liver area stained.

Another series deals with subjects with NASH. Kind of series: 12-week study of ASK1 inhibitor, ACC inhibitor and combination in subjects with NASH. It is filed as in vivo, human. Here is the method: Centrally-read PDFF and MRE, and serum fibrosis markers were measured at baseline (BL), W4 and W12. Deuterated water was administered to measure fractional synthesis of lipids (de novo lipogenesis [DNL]).

Where [2] appears, read: W12, orally QD, Formula (II) 18 mg, Formula (IV) 20 mg, combination 18/20 mg.
Where [3] appears, read: serum, W12, orally QD, Formula (II) 18 mg, Formula (IV) 20 mg, combination 18/20 mg.

SMILES strings stand for the structures. Marks after values point to notes of the source that are not given here.

Consider `COc1ccccc1[C@H](Cn1c(=O)n(C(C)(C)C(=O)O)c(=O)c2c(C)c(-c3ncco3)sc21)O[C@H]1CC[C@@H](O)CC1` [Formula (III)], for which the “Reduction of hepatic PSR (% area)” value in series [1] turned out to be 50%.

Take `COc1ccccc1[C@H](Cn1c(=O)n(C(C)(C)C(=O)O)c(=O)c2c(C)c(-c3ncco3)sc21)OC1CCOCC1` [Formula (IV)]: the “PDFF compared with BL (in words)” value in the series with subjects with NASH (12 weeks orally QD, Formula (IV) p=0.006, combination p<0.001) is “significant improvements”. Besides, in the series on subjects with NASH (12 weeks orally QD, combination p=0.019), the “ALT compared with BL (in words)” value is on record as “non-significant reductions”. In the series on subjects with NASH (12 weeks orally QD, combination p=0.057), the “PIII-NP compared with BL (in words)” value is on record as “non-significant reductions”. The “TIMP-1 compared with BL (in words)” value in the series with subjects with NASH (12 weeks orally QD, p=0.049) was “significant improvements”. For the same compound, in the series on subjects with NASH (12 weeks, orally QD, Formula (II) 18 mg, Formula (IV) 20 mg, combination 18/20 mg), the “Grade 2 or higher AE, % of subjects” value is 40%. In addition, in the series with subjects with NASH (setting [2]), the “ALT, median relative (%) change from BL” value is listed as −33.5%; the “GGT, median relative (%) change from BL” value is −1.6%; the “MRE, median relative (%) change from BL” value is listed as −8.9%; the “MRI-PDFF, median relative (%) change from BL” value is −42.7* %. Further, the “≥30% reduction in MRI-PDFF, % of subjects” value in the series on subjects with NASH (setting [2]) came to 70%. Also, in the series on subjects with NASH (setting [3]), the “PIII-NP, median relative (%) change from BL” value is listed as −11.9% and the “TIMP-1, median relative (%) change from BL” value is −11.6* %.

The record behind these values is patent US20180311244A1, “METHODS OF TREATING LIVER DISEASE” (Gilead Sciences, Inc., priority 2017, published 2018).
